Data: patent publication US11369579B2 (SyneuRx International (Taiwan) Corp., priority 2016, dated 2022)
“Also recorded” adds a separate entry of the source.

How the values were obtained:
[1] = Slurry conversion of polymorphic forms / thermodynamic stability comparison
[2] = Stability test under high humidity condition (>90% RH, 5 days), analyzed by XRPD; conditions: 500 mg

SMILES	Thermodynamic stability among forms of sodium benzoate [1]	Change of XRPD pattern [2]
O=C([O-])c1ccccc1.[Na+] [sodium benzoate from Formosa Laboratories]	less thermodynamically stable	significant changes; also recorded: changes in XRPD
O=C([O-])c1ccccc1.[Na+] [sodium benzoate from Merck, sodium benzoate]	less thermodynamically stable	significant changes; also recorded: changes in XRPD
